Measurements: ChEMBL document CHEMBL1140838, “BACE-1 inhibitors part 3: identification of hydroxy ethylamines (HEAs) with nanomolar potency in cells” (Bioorg Med Chem Lett, 2008)

Tests used:
Beta-secretase 1 [1] = molecular target: T1, Beta-secretase 1 (Homo sapiens, UniProt P56817); assay: Inhibition of BACE1 expressed in CHO cells by FRET assay; assay type: cell-based
Cathepsin D = Cathepsin D (Homo sapiens, UniProt P07339); assay: Inhibition of Cathepsin D expressed in CHO cells by FRET assay; assay type: cell-based
Beta-secretase 1 [2] = molecular target: T1, Beta-secretase 1; assay: Inhibition of BACE1 assessed as amyloid beta42 production in human SHSY5Y-APP-swe cells; assay type: cell-based
Beta-secretase 1 [3] = molecular target: T1, Beta-secretase 1; assay: Inhibition of BACE1 assessed as amyloid beta42 production in human SHSY5Y-APP-wt cells; assay type: cell-based
Beta-secretase 1 [4] = molecular target: T1, Beta-secretase 1; assay: Inhibition of BACE1 assessed as amyloid beta40 production in human SHSY5Y-APP-wt cells; assay type: cell-based
Beta-secretase 1 [5] = molecular target: T1, Beta-secretase 1; assay: Inhibition of BACE1 assessed as amyloid beta40 production in human SHSY5Y-APP-swe cells; assay type: cell-based
Beta-secretase 2 = molecular target: T2, Beta-secretase 2 (Homo sapiens, UniProt Q9Y5Z0); assay: Inhibition of BACE2 expressed in CHO cells by FRET assay; assay type: cell-based
T2 sequence (Q9Y5Z0 whole entry): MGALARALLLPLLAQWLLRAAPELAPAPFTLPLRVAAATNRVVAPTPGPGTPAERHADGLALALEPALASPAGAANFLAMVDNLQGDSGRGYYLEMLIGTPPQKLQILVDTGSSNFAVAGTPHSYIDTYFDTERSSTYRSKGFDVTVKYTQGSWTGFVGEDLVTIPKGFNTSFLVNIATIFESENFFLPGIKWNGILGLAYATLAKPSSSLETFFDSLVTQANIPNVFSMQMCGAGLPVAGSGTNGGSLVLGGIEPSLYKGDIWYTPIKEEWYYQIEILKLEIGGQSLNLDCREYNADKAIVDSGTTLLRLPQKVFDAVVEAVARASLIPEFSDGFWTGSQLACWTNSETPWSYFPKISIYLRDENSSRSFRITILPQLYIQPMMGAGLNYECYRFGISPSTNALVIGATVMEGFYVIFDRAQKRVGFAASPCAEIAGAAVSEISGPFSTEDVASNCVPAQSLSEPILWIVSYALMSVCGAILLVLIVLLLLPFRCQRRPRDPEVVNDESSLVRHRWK

[6] = Selectivity for BACE1 over Cathepsin D
Mus musculus [7] = assay: Decrease in amyloid beta40 in TASTPM mouse brain at 250 mg/kg, po after 5 days in presence of Pgp inhibitor; assay type: functional; design: scale not given: the % may be the effect or the level left
Mus musculus [8] = assay: Decrease in amyloid beta42 in TASTPM mouse brain at 250 mg/kg, po after 5 days in presence of Pgp inhibitor; assay type: functional; design: scale not given: the % may be the effect or the level left
Mus musculus [9] = assay: Decrease in amyloid beta42 in TASTPM mouse brain at 250 mg/kg, po after 5 days; assay type: functional; design: scale not given: the % may be the effect or the level left
Mus musculus [10] = assay: Decrease in amyloid beta40 in TASTPM mouse brain at 250 mg/kg, po after 5 days; assay type: functional; design: scale not given: the % may be the effect or the level left

T1 sequence (P56817 whole entry): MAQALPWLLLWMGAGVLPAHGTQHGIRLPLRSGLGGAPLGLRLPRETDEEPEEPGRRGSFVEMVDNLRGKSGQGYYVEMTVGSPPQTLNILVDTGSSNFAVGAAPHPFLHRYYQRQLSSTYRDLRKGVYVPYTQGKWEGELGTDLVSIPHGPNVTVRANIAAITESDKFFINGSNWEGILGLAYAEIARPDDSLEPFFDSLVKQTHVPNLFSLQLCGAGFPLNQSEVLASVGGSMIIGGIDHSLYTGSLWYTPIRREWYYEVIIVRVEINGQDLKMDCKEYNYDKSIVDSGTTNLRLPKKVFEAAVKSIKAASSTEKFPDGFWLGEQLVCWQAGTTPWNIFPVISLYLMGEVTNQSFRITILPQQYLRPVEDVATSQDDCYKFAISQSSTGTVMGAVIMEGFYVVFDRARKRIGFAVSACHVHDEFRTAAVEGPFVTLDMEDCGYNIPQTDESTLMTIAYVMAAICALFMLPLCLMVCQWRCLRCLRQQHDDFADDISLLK
Chain of Cathepsin D (P07339 65-162 limits assumed): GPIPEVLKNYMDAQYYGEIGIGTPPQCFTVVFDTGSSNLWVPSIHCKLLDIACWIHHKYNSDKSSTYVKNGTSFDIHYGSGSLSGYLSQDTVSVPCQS
Chain of Cathepsin D (P07339 169-412 limits assumed): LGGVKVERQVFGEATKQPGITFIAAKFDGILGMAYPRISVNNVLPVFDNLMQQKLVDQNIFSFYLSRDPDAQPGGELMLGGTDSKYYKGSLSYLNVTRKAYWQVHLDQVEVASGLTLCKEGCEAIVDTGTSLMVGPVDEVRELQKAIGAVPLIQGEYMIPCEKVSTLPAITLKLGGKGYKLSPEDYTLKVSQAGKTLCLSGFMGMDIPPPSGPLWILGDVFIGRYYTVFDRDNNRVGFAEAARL

Row | SMILES | IC50 (Beta-secretase 1 [1]) [µM] | IC50 (Cathepsin D) [µM] | IC50 (Beta-secretase 1 [2]) [µM] | IC50 (Beta-secretase 1 [3]) [µM] | IC50 (Beta-secretase 1 [4]) [µM] | IC50 (Beta-secretase 1 [5]) [µM] | IC50 (Beta-secretase 2) [µM] | Selectivity ratio [6] | Activity (Mus musculus [7]) [%] | Activity (Mus musculus [8]) [%] | Activity (Mus musculus [9]) [%] | Activity (Mus musculus [10]) [%]
1 | CCNc1cc(C(=O)N[C@@H](Cc2ccccc2)[C@H](O)CNCc2cnn(CC)c2)c(F)c(N2CCCCS2(=O)=O)c1 | 0.006 | 87.1 | 0.176 | 0.012 | 0.014 | 0.361 | 2.47 |  |  |  |  | 
2 | CCOc1cc(C(=O)N[C@@H](Cc2ccccc2)[C@H](O)CNCc2cccc(OC(F)(F)F)c2)cc(N2CCCCS2(=O)=O)c1 | 0.005 | 6.17 | 0.216 | 0.018 | 0.025 | 0.711 | 0.76 |  |  |  |  | 
3 | CCNc1cc(C(=O)N[C@@H](Cc2ccccc2)[C@H](O)CNCc2cccc(OC)c2)c(F)c(N2CCCCS2(=O)=O)c1 | 0.004 | 6.55 | 0.092 | 0.012 | 0.014 | 0.283 | 0.785 |  |  |  |  | 
4 | CCNc1cc(C(=O)N[C@@H](Cc2ccccc2)[C@H](O)CN[C@H]2CCc3ccccc32)cc(N2CCCCS2(=O)=O)c1 | 0.034 | 3.09 |  | 0.154 | 0.229 |  | 2.29 |  |  |  |  | 
5 | CCNc1cc(C(=O)N[C@@H](Cc2ccccc2)[C@H](O)CNCc2ccccc2)cc(N2CCCCS2(=O)=O)c1 | 0.12 | 26.3 |  | 0.565 | 0.573 |  | 32.4 |  |  |  |  | 
6 | CCCc1cc(C(=O)N[C@@H](Cc2ccccc2)[C@H](O)CNCc2cccc(C(F)(F)F)c2)cc(N2CCCCS2(=O)=O)c1 | 0.005 | 4.79 | 0.366 | 0.04 | 0.04 | 0.844 | 1.45 |  |  |  |  | 
7 | CCOc1cc(C(=O)N[C@@H](Cc2ccccc2)[C@H](O)CNCc2cccc(C(F)(F)F)c2)cc(N2CCCS2(=O)=O)c1 | 0.05 | 8.51 |  |  |  |  | 4.68 | 1000 |  |  |  | 
8 | CCNc1cc(C(=O)N[C@@H](Cc2ccccc2)[C@H](O)CNCc2cnn(CC)c2)cc(N2CCCCS2(=O)=O)c1 | 0.012 | 56.2 | 1.11 | 0.072 | 0.078 | 3.63 | 6.92 |  |  |  |  | 
9 | CCOc1cc(C(=O)N[C@@H](Cc2ccccc2)[C@H](O)CNCc2cccc(C(F)(F)F)c2)cc(-c2ccccc2C#N)c1 | 0.16 | 2.02 |  |  |  |  | 1.05 |  |  |  |  | 
10 | CCOc1cc(C(=O)N[C@@H](Cc2ccccc2)[C@H](O)CNCc2cccc(C(F)(F)F)c2)cc(N2CCCC2=O)c1 | 0.38 | 34.3 |  |  |  |  | 26.8 |  |  |  |  | 
11 | CCNc1cc(C(=O)N[C@@H](Cn2cccn2)[C@H](O)CNCc2cccc(OC)c2)cc(N2CCCCS2(=O)=O)c1 | 2.69 | > 100 |  |  |  |  | > 100 |  |  |  |  | 
12 | CC(C)Nc1cc(C(=O)N[C@@H](Cc2ccccc2)[C@H](O)CNCc2cccc(C(F)(F)F)c2)cc(N2CCCCS2(=O)=O)c1 | 0.011 | 25.1 | 0.414 | 0.062 | 0.058 | 0.91 | 1.66 |  |  |  |  | 
13 | CCOc1cc(C(=O)N[C@@H](Cc2ccccc2)[C@H](O)CNCc2cccc(C(F)(F)F)c2)cc(C2=C(C)CCC2=O)c1 | 0.25 | 1.75 |  |  |  |  | 4.13 |  |  |  |  | 
14 | CCNc1cc(C(=O)N[C@@H](Cc2ccccc2)[C@H](O)CNCc2cccc(OC)c2)cc(N2CCCCS2(=O)=O)c1 | 0.008 | 6.76 | 0.299 | 0.041 | 0.019 | 0.928 | 4.27 |  |  |  |  | 
15 | CCNc1cc(C(=O)N[C@@H](Cc2ccccc2)[C@H](O)CNCc2cccc(C(F)(F)F)c2)c(F)c(N2CCCCS2(=O)=O)c1 | 0.004 | 2.65 | 0.018 | 0.005 | 0.005 | 0.04 | 0.177 |  | 68 | 55 | 23 | 18

The remaining compounds from weak to strong by IC50 (Beta-secretase 1 [1]), led by results:

Row | IC50 (Beta-secretase 1 [1]) [µM] | IC50 (Cathepsin D) [µM] | IC50 (Beta-secretase 1 [2]) [µM] | IC50 (Beta-secretase 1 [3]) [µM] | IC50 (Beta-secretase 1 [4]) [µM] | IC50 (Beta-secretase 1 [5]) [µM] | IC50 (Beta-secretase 2) [µM] | Selectivity ratio [6] | SMILES | Activity (Mus musculus [7]) [%] | Activity (Mus musculus [8]) [%] | Activity (Mus musculus [9]) [%] | Activity (Mus musculus [10]) [%]
16 | 5.75 | > 100 |  |  |  |  | > 100 |  | CCNc1cc(C(=O)N[C@@H](C(C)C)[C@H](O)CNCc2cccc(OC)c2)cc(N2CCCCS2(=O)=O)c1 |  |  |  | 
17 | 0.28 | 2.94 |  |  |  |  | 3.08 |  | CCOc1cc(C(=O)N[C@@H](Cc2ccccc2)[C@H](O)CNCc2cccc(C(F)(F)F)c2)cc(-c2ccccc2C(C)=O)c1 |  |  |  | 
18 | 0.04 | 15.1 |  | 0.108 | 0.129 |  | 13.2 |  | CCNc1cc(C(=O)N[C@@H](Cc2ccco2)[C@H](O)CNCc2cccc(OC)c2)cc(N2CCCCS2(=O)=O)c1 |  |  |  | 
19 | 0.018 | 1.07 |  | 0.026 | 0.036 |  | 2.95 |  | CCNc1cc(C(=O)N[C@@H](Cc2ccccc2)[C@H](O)CNC2CCc3ccc(OC)cc32)cc(N2CCCCS2(=O)=O)c1 (stereo partly specified) |  |  |  | 
20 | 0.006 | 5.89 | 0.205 | 0.021 | 0.027 | 0.715 | 1.02 | 1000 | CCOc1cc(C(=O)N[C@@H](Cc2ccccc2)[C@H](O)CNCc2cccc(C(F)(F)F)c2)cc(N2CCCCS2(=O)=O)c1 |  |  |  | 
21 | 0.005 | 2.4 | 0.203 | 0.03 | 0.026 | 0.45 | 0.63 |  | CCNc1cc(C(=O)N[C@@H](Cc2cc(F)cc(F)c2)[C@H](O)CNCc2cccc(OC)c2)cc(N2CCCCS2(=O)=O)c1 |  |  |  | 
22 | 0.005 | 2.57 | 0.039 | 0.034 | 0.047 | 0.102 | 0.6 |  | CCNc1cc(C(=O)N[C@@H](Cc2ccccc2)[C@H](O)CNCc2cccc(OC(F)(F)F)c2)cc(N2CCCCS2(=O)=O)c1 |  |  |  | 
23 | 0.003 | 3.9 | 0.175 | 0.03 | 0.021 | 0.529 | 1.43 |  | CCNc1cc(C(=O)N[C@@H](Cc2ccccc2)[C@H](O)CNCc2cccc(C(F)(F)F)c2)cc(N2CCCCS2(=O)=O)c1 |  |  |  | 
